# Reference: patent US12415819B2, “Cu- and Ni-catalyzed decarboxylative borylation reactions” (The Scripps Research Institute, priority 2017, dated 2025)
# Values joined by “and” are separate entries in the source; they are usually repeats but may differ in a detail not shown here. Equal values may be shown once.
# Columns and labels:
# Kinetic Solubility Test = format: physicochemical
# Protocol: The stock solution of each compound (10 μL; 10 mM in DMSO) was diluted with phosphate buffer solution (490 μL; 50 mM, pH 6.8). The resulting mixture was shaken for 24 h. Samples were then filtered.
# Plasma Stability Assay = format: in vitro ADME, mouse
# Protocol: Propantheline was used as the reference compound in this assay; all stock solutions were stored at −40° C. before use. • 2) Test system: CD-1 Mouse Plasma from a minimum of 20 male individuals were obtained from BioreclamationlVT (Catalog #: […]2-M; Batch #: MSE244515). EDTA-K2 was used as the anticoagulant. Procedure:
# The frozen plasma was thawed in a water bath at 37° C. prior to the experiments. The plasma was centrifuged at 4000 rpm for 5 min and the clots were removed if necessary.
# The pH was adjusted to 7.4±0.1 as necessary. An intermediate solution (1 mM) was prepared and a 100 μM dosing solution was prepared by diluting 10 μL of the intermediate solution with 90 μL 45% MeOH/H2O. Duplicate of test samples were made by mixing 98 μL of blank plasma with 2 μL of dosing solution (100 μM) to achieve the final concentration of 2 μM. Samples were incubated at 37° C. At each time point (0, 10, 30, 60, and 120 min), 400 μL of stop solution (consisting of 200 ng/mL tolbutamide and 20 ng/mL buspirone in 50% MeOH/CH3CN) was added to precipitate protein under thorough mixing. The sample plates were then centrifuged at 4,000 rpm for 10 min. An aliquot of supernatant (100 μL) was transferred from each well and mixed with 200 of μL ultrapure water. The samples were shaken at 800 rpm for about 10 min before LC-MS/MS analysis.
# Data analysis: The % remaining of test compound after incubation in plasma was calculated using following equation: Remaining=100×(PAR at Tn/PAR at T0) where PAR is the peak area ratio of analyte versus internal standard (IS) and The appointed incubation time points are T0 (0 min), Tn (n=0, 10, 30, 60, 120 min).
# LC-MS/MS condition: Each compound was analyzed by LC/MS using an ACE 5-phenyl 50×2.1 mm column (Part No. ACE-125-0502) with 0.1% formic acid in water and 0.1% formic acid in acetonitrile as the mobile phases. Tobultamide was used as the internal standard. Data collected were processed by Analyst 1.6.2 software and MultiQuant 3.0.2 software.
# [1] = Mouse Liver Microsomal Metabolic Stability Assay
# Protocol: 100 mM potassium phosphate buffer, pH 7.4. • 2. 10 mM MgCl2 • 3) Compound Dilution:
# Intermediate solution was prepared by diluting 5 μL of compound or control stock solution (10 mM in DMSO) with DMSO (45 μL) and 1:1 Methanol/Water (450 μL) (concentration=100 μM, 45% MeOH). Working solution was prepared by diluting 50 μL of the intermediate solution with 450 μL of 100 mM potassium phosphate buffer, pH=7.4 (centration=10 μM, 4.5% MeOH). • 4) NADPH regenerating system (final Isocitric dehydrogenase concentration=1 unit/mL at incubation) comprised:
# 10 μL/well of compound working solution or control working solution was added to all plates (T0, T5, T10, T20, T30, T60, NCF60) except the matrix blank. 80 μL/well of microsome solution was added to every plate. The mixtures of microsome solution and compound were incubated at 37° C. for about 10 min. 10 μL/well of NADPH regenerating system (pre-warmed to 37° C.) was then added to every plate to start the reaction. […] For NCF60 (abbreviation of no co-factor) no NADPH regenerating system was added, but was replaced by 10 μL/well of potassium phosphate buffer (100 mM, pH 7.4); the resulting mixture was incubated at 37° C. for 1 h.
# The reactions were then terminated with the stop solution (cold at 4° C.) containing 100 ng/mL Tolbutamide and 100 ng/mL Labetalol ([…]). The sampling plates were shaken for approximately 10 minutes, then were centrifuged at 4000 rpm for 20 min at 4° C. While centrifuging, 8 new 96 well plates were loaded with […] of HPLC grade water. 100 μL of supernatant was finally added to 300 μL of HPLC grade water and mixed for LC/MS/MS analysis.
# The equation of first order kinetics was used to calculate T1/2 and CIint(mic): […]
# Caco-2 cells = assay: in vitro; details: Caco-2
# Protocol: Digoxin, fenoterol, and propranol were used as standards respectively. Transport Method:
# The transport buffer used in the study was HBSS with 10 mM HEPES at pH 7.40±0.05. Compounds were tested at 2 μM bi-directionally in duplicates. Digoxin was tested at […] bi-directionally in a duplicate, while fenoterol and propranolol were tested at 2 μM in A(apical) to B (basolateral) direction in duplicates. The final DMSO concentration was adjusted to less than 1%. The plate was incubated for 2 hours in a CO2 incubator at 37±1° C., with 5% CO2 at saturated humidity without shaking. All samples, after mixing with acetonitrile containing internal standard, were centrifuged at 4000 rpm for 20 min. Subsequently,100 μL supernatant solution was diluted with 100 μL distilled water for LC/MS/MS analysis. Concentrations of test and control compounds in starting solution, donor solution, and receiver solution were quantified by LC/MS/MS methodologies, using peak area ratio of analyte/internal standard. After transport assay, lucifer yellow rejection assay was applied to determine the Caco-2 cell monolayer integrity.
# Data analysis: The apparent permeability coefficient Papp (cm/s) was calculated using the equation:
# The efflux ratio was calculated using the equation: Efflux ratio=Papp(BA)/Papp(AB)
# Percent recovery was calculated using the equation: % Recovery=100×[(Vr·Cr)+(Vd·Cd)]/(Vd·C0) Where Vd is the volume in the donor chambers (0.075 mL on the apical side, 0.25 mL on the basolateral side); Cd and Cr are the final concentrations of transport compound in donor and receiver chambers, respectively.
# [2] = target: elastase in CF patient sputum (Homo sapiens (Human), UniProt P08246); assay: Elastase inhibition assay in CF patient sputum; format: biochemical
# Sequence of elastase in CF patient sputum (P08246 30-267): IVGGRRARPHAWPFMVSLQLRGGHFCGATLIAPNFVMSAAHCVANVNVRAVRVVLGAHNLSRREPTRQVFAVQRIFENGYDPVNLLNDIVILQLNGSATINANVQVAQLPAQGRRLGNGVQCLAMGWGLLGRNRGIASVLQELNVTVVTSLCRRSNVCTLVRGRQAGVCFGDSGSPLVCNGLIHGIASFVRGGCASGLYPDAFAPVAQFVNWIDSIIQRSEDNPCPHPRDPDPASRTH
# Protocol: (§1) Serially diluted compounds in DMSO were dispensed into a 384-well black opaque plate by Echo dispenser. 0.1 μg/mL human neutrophil elastase (EPC, Catalog# SE563, Owensville, Ms.) or human sputum diluted with assay buffer (100 mM HEPES, 500 mM NaCl, 0.02% Tween 20) was added into the 384-well plate, and was incubated with different compounds at different concentrations for 30 minutes at room temperature. The final concentration of DMSO in the reaction was 0.1%. Elastase substrate MeOSuc-AAPV-AMC (Bachem, Catalog #I-1270, Torrance, CA) of 100 μM final concentration was then added into the reaction system just before enzyme kinetics were read on PheraSTAR plate reader at excitation of 380 nm and emission of 460 nm with a 3-minutes interval for 30 minutes in total. Slope of fluorescence intensity vs. time representing the Vmax of enzyme activity was calculated with MARS software. % relative inhibition was calculated as: […]
# (§2) IC50 was calculated based on the % relative inhibition curve using log(agonist) vs. response (three parameters) method with Prism software. All experiments were performed in triplicate for at least three independent times.
# (§3) Human sputum was purchased from Discovery Life Sciences (Los Osos, CA). Human sputum was diluted 1:10 in volume with assay buffer (100 mM HEPES, 500 mM NaCl, 0.02% Tween 20) followed by vigorous vortexing. The 1:10 diluted human sputum was further diluted into 1:30, 1:90, 1:270, 1:810, and 1:2430. The elastase concentration was determined by elastase inhibition assay as described above. Specifically, a series of standards of human neutrophil elastase (starting at 2 μg/mL and further diluted 1:2 in volume) were prepared in the assay buffer. The samples and standards were plated in a 384-well black solid bottom plate; the substrate MeOSuc-AAPV-AMC of 100 μM final concentration was then added into the reaction system just before enzyme kinetics were read on PheraSTAR plate reader as mentioned above. The slope of enzymatic kinetic reading was calculated by MARS software. The elastase levels of the human sputum were calculated based on the standard curve.
# [3] = target: elastase in COPD patient sputum (Homo sapiens (Human), UniProt P08246); assay: Elastase inhibition assay in COPD patient sputum; format: biochemical
# Sequence of elastase in COPD patient sputum (P08246 30-267): as above
# Protocol: as §1, §2, §3
# [4] = target: T1, human neutrophil elastase (Homo sapiens (Human), UniProt P08246); assay: Elastase inhibition assay, purified human neutrophil elastase; format: biochemical; details: for IC50: read-out: IC50
# T1 sequence (P08246 30-247): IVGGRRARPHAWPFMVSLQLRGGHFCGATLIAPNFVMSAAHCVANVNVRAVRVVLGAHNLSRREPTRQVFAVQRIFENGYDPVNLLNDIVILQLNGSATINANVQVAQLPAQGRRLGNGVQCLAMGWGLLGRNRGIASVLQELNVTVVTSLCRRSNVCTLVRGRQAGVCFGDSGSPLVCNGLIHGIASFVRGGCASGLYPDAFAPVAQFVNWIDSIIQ
# Protocol: as §1, with “Elastase substrate MeOSuc-AAPV-AMC (Bachem, Catalog #I-1270, Torrance, CA) of 100 μM final concentration was then added into the reaction system just before enzyme kinetics were read on PheraSTAR plate reader at excitation of 380 nm and emission of 460 nm with a 3-minutes interval for 30 minutes in total.” left out
# as §2
# [5] = target: T1, human neutrophil elastase; assay: as above; format: biochemical
# [6] = target: T1, human neutrophil elastase; assay: Time dependence of elastase inhibition; format: biochemical
# Protocol: The procedure for the elastase inhibition assay was followed with slight modifications. 0.1 μg/mL human neutrophil elastase was incubated with a range of concentrations of inhibitors for 5, 15, 30 and 60 minutes before substrate MeOSuc-AAPV-AMC of 100 μM final concentration was added. Enzyme kinetics were read on PheraSTAR plate reader and IC50 was calculated with the method described above.
# [7] = mouse, microsomes, 1 h, 1 μM, pH 7.4
structure (smiles),measurement,setting,value
CC(C)[C@H](NC(=O)c1ccc(C(=O)NS(=O)(=O)c2ccc(Cl)cc2)cc1)C(=O)N1CCC[C@H]1C(=O)N[C@H](C(=O)C(F)(F)F)C(C)C [Compound 51a],Kinetic Solubility pH = 6.8,"Kinetic Solubility Test; phosphate buffer pH 6.8, 24 h",119.75 μg/mL
same,solubility kinetic at 24 h,"Kinetic Solubility Test; phosphate buffer pH 6.8, 24 h",174.28 µM
same,Kinetic solubility (pH 6.8),Kinetic Solubility Test; summary table,174.28 μm
same,% Remaining (mean),"Plasma Stability Assay; mouse, plasma, 10 min",99.0%
same,% Remaining (mean),"Plasma Stability Assay; mouse, plasma, 0.5 h",109.1%
same,% Remaining (mean),"Plasma Stability Assay; mouse, plasma, 1 h",99.5%
same,% Remaining (mean),"Plasma Stability Assay; mouse, plasma, 2 h",106.6%
same,CD-1 Mouse Plasma % Remaining @ 2 hr,"Plasma Stability Assay; mouse, plasma, 2 h",106.6%
same,CLint(liver),[1]; MLM 0.5,76.6 mL/min/kg
same,Remaining (*NCF = 60min),"[1]; MLM 0.5, no co-factor",91.7%
same,Remaining (T = 60 min),"[1]; MLM 0.5, with NADPH regenerating system",52.2%
same,Caco-2 (Papp A − B),Caco-2 cells,<0.16 10^−6 cm/s
same,Caco-2 (Papp B − A),Caco-2 cells,0.61 10^−6 cm/s
same,Mean Papp A to B,Caco-2 cells,<0.08 10^−6 cm/s
same,Mean Papp B to A,Caco-2 cells,<0.12 10^−6 cm/s
same,Mean Recovery % A to B,Caco-2 cells,<74.15%
same,Mean Recovery % B to A,Caco-2 cells,<90.87%
"COC(=O)N[C@H](C(=O)N1CCC[C@H]1C(=O)N[C@H](B(O)O)C(C)C)C(C)C [Compound 50, ((R)-1-((S)-1-((methoxycarbonyl)-L-valyl)pyrrolidine-2-carboxamido)-2-methylpropyl)boronic acid]",solubility kinetic at 24 h,"Kinetic Solubility Test; aqueous buffer, kinetic from dmso stock, phosphate buffer pH 6.8, 24 h",> 74.2 µg/mL and > 200 µM
same,% Remaining (mean),"Plasma Stability Assay; CD-1 Mouse Plasma, 0 min, 2 μM, 37° C.",100.0%
same,% Remaining (mean),"Plasma Stability Assay; CD-1 Mouse Plasma, 10 min",100.5%
same,% Remaining (mean),"Plasma Stability Assay; CD-1 Mouse Plasma, 30 min",105.2%
same,% Remaining (mean),"Plasma Stability Assay; CD-1 Mouse Plasma, 60 min",88.0%
same,% Remaining (mean),"Plasma Stability Assay; CD-1 Mouse Plasma, 120 min",76.7%
same,Extraction ratio,"[1]; mouse, 1 μM, pH 7.4",<0.3
same,Remaining (*NCF = 60min),[1]; [7],99.0%
same,Remaining (T = 60 min),[1]; [7],78.5%
same,CLint scaled at 1 μM,"[1]; mouse, microsomes, pH 7.4",< 38 mL/min/kg
same,half-life at 1 μM,"[1]; mouse, microsomes, pH 7.4",> 2.42 h
same,microsomal CLint at 1 μM,"[1]; mouse, microsomes, pH 7.4",< 9.6 µL/min/mg
same,IC50,[2]; CF sputum,0.51 ± 0.04 nM
same,IC50,[3],0.274 ± 0.004 nM
Cc1c(-c2ccnn2-c2ccc(C#N)cc2)cc(C(=O)NCC(O)CNC(=O)c2cc(-c3ccnn3-c3ccc(C#N)cc3)c(C)n(-c3cccc(C(F)(F)F)c3)c2=O)c(=O)n1-c1cccc(C(F)(F)F)c1 [Compound 58],LipE,[4]; Purified NHE,5.04
same,IC50,"[4]; Purified NHE, 30 minutes incubation at room temperature, 100 μM substrate",0.0111 ± 0.0002 nM
same,IC50,[4]; purified HNE,0.011 nM
same,IC50,[2]; CF sputum,203 ± 31.2 nM
same,LipE,[2]; CF sputum,0.77
same,inhibitory activity in patient sputum versus purified HNE (in words),[2]; sputum samples of CF and COPD patients,potencies diminished drastically
same,Ki,"[5]; 2.5, 25, 50 and 100 μM substrate, mixed model",0.0027 nM
same,Ki,[5]; purified HNE,0.0027 nM
same,IC50,[6]; 5 min incubation with inhibitor,0.011 nM
same,IC50,[6]; 15 min incubation with inhibitor,0.004 nM
same,IC50,[6]; 30 min incubation with inhibitor,0.0026 nM
same,increase in potency with increasing incubation times,[6]; between 5-60 minutes,55 fold
same,IC50,[3],16.2 ± 2.13 nM
same,LipE,[3],1.87
